Laboratory results from the NIST ThermoML archive (doi:10.1021/acs.jced.8b00979).

Assay: xn = mol fraction of the nth substance listed
Details: 100 kPa, Liquid; for viscosity: Capillary tube (Ostwald / Ubbelohde) method; for mass density: Vibrating tube method

CCC(C)CO (stereo not given) [2-methyl-1-butanol] + CCCC(C)O
Details	mass density [kg/m3]	viscosity [mPa·s]
288.15 K, x2 = 0	823.35	6.439
288.15 K, x2 = 0.1	822.37	6.154
288.15 K, x2 = 0.2	821.39	5.978
288.15 K, x2 = 0.301	820.41	5.83
288.15 K, x2 = 0.4	819.44	5.687
288.15 K, x2 = 0.5	818.45	5.556
288.15 K, x2 = 0.6	817.47	5.435
288.15 K, x2 = 0.7	816.47	5.323
288.15 K, x2 = 0.8	815.45	5.232
288.15 K, x2 = 0.9	814.4	5.154
293.15 K, x2 = 0	819.64	5.3
293.15 K, x2 = 0.1	818.65	5.034
293.15 K, x2 = 0.2	817.65	4.881
293.15 K, x2 = 0.301	816.65	4.762
293.15 K, x2 = 0.4	815.65	4.649
293.15 K, x2 = 0.5	814.64	4.548
293.15 K, x2 = 0.6	813.63	4.459
293.15 K, x2 = 0.7	812.6	4.377
293.15 K, x2 = 0.8	811.57	4.314
293.15 K, x2 = 0.9	810.5	4.251
298.15 K, x2 = 0	815.85	4.501
298.15 K, x2 = 0.1	814.84	4.249
298.15 K, x2 = 0.2	813.83	4.106
298.15 K, x2 = 0.301	812.81	3.99
298.15 K, x2 = 0.4	811.79	3.882
298.15 K, x2 = 0.5	810.75	3.787
298.15 K, x2 = 0.6	809.72	3.703
298.15 K, x2 = 0.7	808.68	3.625
298.15 K, x2 = 0.8	807.63	3.564
298.15 K, x2 = 0.9	806.54	3.496
303.15 K, x2 = 0	812.12	3.825
303.15 K, x2 = 0.1	811.09	3.585
303.15 K, x2 = 0.2	810.04	3.46
303.15 K, x2 = 0.301	808.98	3.355
303.15 K, x2 = 0.4	807.92	3.253
303.15 K, x2 = 0.5	806.85	3.163
303.15 K, x2 = 0.6	805.78	3.093
303.15 K, x2 = 0.7	804.7	3.028
303.15 K, x2 = 0.8	803.62	2.973
303.15 K, x2 = 0.9	802.49	2.91
308.15 K, x2 = 0	808.29	3.265
308.15 K, x2 = 0.1	807.23	3.047
308.15 K, x2 = 0.2	806.15	2.928
308.15 K, x2 = 0.301	805.06	2.83
308.15 K, x2 = 0.4	803.97	2.735
308.15 K, x2 = 0.5	802.86	2.653
308.15 K, x2 = 0.6	801.76	2.589
308.15 K, x2 = 0.7	800.64	2.53
308.15 K, x2 = 0.8	799.52	2.482
308.15 K, x2 = 0.9	798.36	2.422
313.15 K, x2 = 0	804.41	2.783
313.15 K, x2 = 0.1	803.33	2.586
313.15 K, x2 = 0.2	802.22	2.481
313.15 K, x2 = 0.301	801.08	2.398
313.15 K, x2 = 0.4	799.95	2.317
313.15 K, x2 = 0.5	798.81	2.248
313.15 K, x2 = 0.6	797.67	2.196
313.15 K, x2 = 0.7	796.51	2.151
313.15 K, x2 = 0.8	795.35	2.112
313.15 K, x2 = 0.9	794.14	2.062
318.15 K, x2 = 0	800.47	2.379
318.15 K, x2 = 0.1	799.36	2.199
318.15 K, x2 = 0.2	798.21	2.11
318.15 K, x2 = 0.301	797.03	2.037
318.15 K, x2 = 0.4	795.86	1.968
318.15 K, x2 = 0.5	794.68	1.91
318.15 K, x2 = 0.6	793.49	1.869
318.15 K, x2 = 0.7	792.29	1.835
318.15 K, x2 = 0.8	791.09	1.805
318.15 K, x2 = 0.9	789.84	1.764
323.15 K, x2 = 0	796.47	2.06
323.15 K, x2 = 0.1	795.33	1.898
323.15 K, x2 = 0.2	794.13	1.817
323.15 K, x2 = 0.301	792.91	1.754
323.15 K, x2 = 0.4	791.7	1.696
323.15 K, x2 = 0.5	790.47	1.649
323.15 K, x2 = 0.6	789.24	1.618
323.15 K, x2 = 0.7	788	1.59
323.15 K, x2 = 0.8	786.75	1.56
323.15 K, x2 = 0.9	785.47	1.525
328.15 K, x2 = 0	792.41	1.787
328.15 K, x2 = 0.1	791.24	1.649
328.15 K, x2 = 0.2	789.99	1.578
328.15 K, x2 = 0.301	788.72	1.525
328.15 K, x2 = 0.4	787.46	1.476
328.15 K, x2 = 0.5	786.19	1.44
328.15 K, x2 = 0.6	784.91	1.418
328.15 K, x2 = 0.7	783.62	1.396
328.15 K, x2 = 0.8	782.33	1.371
328.15 K, x2 = 0.9	781	1.346
